Data on one sequence can be found in US20200247849A1, “PEPTIDE AGONISTS AND ANTAGONISTS OF TLR4 ACTIVATION” (PEPTICOM LTD, priority 2016, published 2020).

For this experiment, the system named is TLR4 with MD2 or CD14 co-receptor. The experiment in a line: Reporter gene (SEAP) PAMP assay in NIH3T3 cells expressing TLR4 with MD2 or CD14 co-receptor. As to conditions: summary of FIGS. 6A-6V. The class given is cell-based. The source says: FIGS. 6A-6V show the dose response inhibitor/activator effects of the designed peptides using a reporter gene assay. The reporter gene assay is composed of NIH3T3 cells transfected with either MD2 or CD14 along with TLR4 and the NF-κB-inducible reporter gene Secreted Alkaline Phosphatase (SEAP) to monitor TLR4 activation (Burger-[…] al. 2010, A new cell-based innate immune receptor assay for the examination of receptor activity, ligand specificity, signaling pathways and the detection of pyrogens. […] The receptors are coupled to for the detection of inhibitory activity, cells were treated with the peptide prior to exposure to LPS and the response to LPS is measured at variable peptide doses (as labeled). The detection of cell activation was performed using the peptide alone, at variable doses, as indicated in the respective graphs. The following presents in more details the experimental procedures. Experimental setup: The cell-based Assay is performed with different NIH3T3 reporter cell lines (NIH 3T3 PRR SEAP-TLR4/CD14 or -TLR4/MD2) and the control cell line NIH 3T3 SEAP. The NIH3T3 SEAP cell line is used in order to determine the background of the alkaline phosphatase expression. It is a cell line stably transfected with only the reporter gene plasmid. For each assay a vial of the master cell bank is revitalized and seeded in a standard cell culture flask (75 cm^2 T-Flask) at day one. Cells are cultured in 20 ml culture media (DMEM supplemented with 10% FCS (heat inactivated), 50 units/ ml penicillin, 0.05 mg/ ml streptomycin and 2 mmol/ L L-glutamine). The cells are cultured at 37° C. in a 5% CO2 humidified atmosphere. At Day 1: For the PAMP Assay cells are seeded in a 96-well plate at a density of 0.3.10^5 cells/well in a final volume of 100 μl culture media (DMEM, 10% FCS (heat inactivated)). To ensure equal culture conditions the 96-well cell culture plates are placed side by side and cultivated in a humidified CO2 incubator (37° C. and 5% CO2). […] After a cultivation period of 24 h the media is removed and replaced with the respective volume of fresh media (DMEM, 0.5% FCS (heat inactivated)).The lyophilized peptides are stored in a freezer at -20° C. upon arrival. For the experiments they are dissolved in DMSO (to the highest possible concentration). Before opening the peptides are allowed to equilibrate to room temperature (in order to reduce the uptake of moisture). For each experiment the stock solution is diluted in DMEM to the appropriate working concentration. […] Sonication was also used to help dissolve the peptides. Immediately after replacing the media, the diluted peptides are applied in a serial dilution to the cells and directly after that the agonist is added to the cells. After adding peptide and […] the final volume in each well of a 96 well plate amounts 100 μl/well. The culture medium containing 0.5% FCS is used as a negative reference item. The induction is performed for 18 h at 37° C. and 5% CO2. At Day 3: To determine the final SEAP value, 50 μl of the supernatant is carefully transferred in a new 96-well plate (Greiner-F-plate) and 50 μl of the substrate (pNPP; p-nitrophenyl phosphate) is added. SEAP catalyzes the hydrolysis of pNPP to the final product para-nitrophenol (yellow) which can be detected by a photometric analysis using an UV-VIS reader at 405 nm. […] The results of FIGS. 6A-6V with respect to peptide activity are summarized in Table 1 above with respect to the type of effect of the respective peptide (activation/inhibition) and with respect to the corresponding co-receptor (MD2/CD14). Data concerning SEQ ID No. 22 with respect to co-receptor CD14 is in preparation.
For orientation: Reporter assays use an easily measured gene product as a stand-in for the process of interest.

For the sequence ILFMGMKWL (Inhibitor) [SEQ ID No. 9], the Co-Receptor/s result (co-receptor (MD2/CD14) via which the effect occurs) is listed as “MD2”. Also, under “type of effect (activation/inhibition) on TLR4”, the Activity entry is listed as “Inhibitor”.
